Measurements taken from patent US10865216B2, “Tricyclic Gyrase inhibitors” (MERCK SHARP & DOHME CORP., priority 2012, dated 2020).
In brackets after ≈: the same amount, converted by molar mass.

What was measured:
E. coli ATCC 25922 = experiment: MIC, E. coli ATCC 25922; format: cell-based; settings: Table 18, Ec
S. aureus ATCC 13709 = experiment: MIC, S. aureus ATCC 13709; format: cell-based; settings: Table 18, Sa

Row | SMILES | MIC Ec (E. coli ATCC 25922) [µg/mL] | MIC Sa (S. aureus ATCC 13709) [µg/mL]
1 | CNc1cc(F)cc2c1[nH]c1nc(NCc3cccnc3)nc(N3C[C@H]4C[C@@H]3C[C@H]4N)c12 [Compound 10.48] | 16 (≈ 37 µM) | 8 (≈ 18.5 µM)
2 | CNc1cc(F)cc2c1[nH]c1nc(SCc3cccnc3)nc(N3C[C@H]4C[C@@H]3C[C@H]4N)c12 [Compound 10.49] | 2 (≈ 4.45 µM) | ≤ 0.5
3 | CNc1cc(F)cc2c1[nH]c1nc(Oc3ccc4ccnn4c3)nc(N3C[C@H]4C[C@@H]3C[C@H]4N)c12 [Compound 10.50] | ≤ 0.5 | ≤ 0.5
4 | CNc1cc(F)cc2c1[nH]c1nc(NCc3cccnc3)nc(N3C[C@H]4C[C@@H]3C[C@H]4N)c12 [Compound 10.51] | 16 (≈ 37 µM) | 4 (≈ 9.25 µM)
5 | CNc1cc(F)cc2c1[nH]c1nc(Oc3ccc4ccnn4c3)nc(N3C[C@H]4CCN[C@H]4C3)c12 [Compound 10.52] | ≤ 0.5 | ≤ 0.5
6 | CNc1cc(F)cc2c1[nH]c1nc(Oc3ccc4ccnn4c3)nc(N3C[C@H]4C[C@@H](N)[C@H]4C3)c12 [Compound 10.53] | ≤ 0.5 | ≤ 0.5
7 | CNc1cc(F)cc2c1[nH]c1nc(Oc3cnc(C)nc3)nc(N3CCOCC3)c12 [Compound 10.54] | ≤ 0.5 | ≤ 0.5
8 | CNc1cc(F)cc2c1[nH]c1nc(Oc3cnc4c(C(C)O)cnn4c3)nc(N3C[C@H]4C[C@@H]3C[C@H]4N)c12 (some centres unmarked) [Compound 10.55] | 1 (≈ 1.99 µM) | ≤ 0.5
9 | CNc1cc(F)cc2c1[nH]c1nc(Oc3cnc4ccnn4c3)nc(N3CC4(CCC4N)C3)c12 (centres unmarked) [Compound 10.56] | ≤ 0.5 | ≤ 0.5
10 | CNc1cc(F)cc2c1[nH]c1nc(Oc3ccc4ccnn4c3)nc(N3CC4(CCC4N)C3)c12 (centres unmarked) [Compound 10.57] | ≤ 0.5 | ≤ 0.5
11 | CNc1cc(F)cc2c1[nH]c1nc(Oc3cnc([C@@H](C)O)nc3)nc(N3CC4(CC[C@H]4N)C3)c12 [Compound 10.59] | ≤ 0.5 | ≤ 0.5
12 | CNc1cc(F)cc2c1[nH]c1nc(NCc3cnc(C)nc3)nc(N3C[C@H]4C[C@@H]3C[C@H]4N)c12 [Compound 10.60] | 16 (≈ 35.8 µM) | 8 (≈ 17.9 µM)
13 | CNc1cc(F)cc2c1[nH]c1nc(Oc3cnc(C)nc3)nc(N3CC4(CC/C4=N\O)C3)c12 [Compound 10.61] | 2 (≈ 4.46 µM) | 0.03 (≈ 0.0669 µM)

Continued, values first:

Row | MIC Ec (E. coli ATCC 25922) [µg/mL] | MIC Sa (S. aureus ATCC 13709) [µg/mL] | SMILES
14 | ≤ 0.5 | ≤ 0.5 | CNc1cc(F)cc2c1[nH]c1nc(Oc3cnn4ccnc4c3)nc(N3C[C@H]4C[C@@H]3C[C@H]4N)c12 [Compound 10.62]
15 | ≤ 0.5 | ≤ 0.5 | CNc1cc(F)cc2c1[nH]c1nc(Oc3cnc(C(C)O)nc3)nc(N3C[C@@H]4[C@H](N)C(F)[C@@H]4C3)c12 (some centres unmarked) [Compound 10.63]
16 | ≤ 0.5 | ≤ 0.5 | CNc1cc(F)c(Cl)c2c1[nH]c1nc(Oc3cnc(C)nc3)nc(N3C[C@H]4CCN[C@H]4C3)c12 [Compound 10.64]
17 | ≤ 0.5 | ≤ 0.5 | CNc1cc(F)cc2c1[nH]c1nc(Oc3cnc(C)nc3)nc(N3CC4CCC4(N)C3)c12 (centres unmarked) [Compound 10.65]
18 | ≤ 0.5 | ≤ 0.5 | CNc1cc(F)c(Cl)c2c1[nH]c1nc(Oc3cnc(C)nc3)nc(N3CC4(CC[C@H]4N)C3)c12 [Compound 10.66]
19 | ≤ 0.5 | ≤ 0.5 | CNc1cc(F)c(Br)c2c1[nH]c1nc(Oc3cnc(C)nc3)nc(N3C[C@H]4C[C@@H]3C[C@H]4N)c12 [Compound 10.68]
20 | ≤ 0.5 | ≤ 0.5 | CNc1cc(F)c(C#N)c2c1[nH]c1nc(Oc3cnc(C)nc3)nc(N3C[C@H]4C[C@@H]3C[C@H]4N)c12 [Compound 10.69]
21 | ≤ 0.5 | ≤ 0.5 | CNc1cc(F)c(C#N)c2c1[nH]c1nc(Oc3cnc(C)nc3)nc(N3C[C@H]4CCN[C@H]4C3)c12 [Compound 10.70]
22 | ≤ 0.5 | ≤ 0.5 | CNc1cc(F)c(C#N)c2c1[nH]c1nc(Oc3cnc(C)nc3)nc(N3CC4(CC[C@H]4N)C3)c12 [Compound 10.71]
23 | ≤ 0.5 | ≤ 0.5 | CNc1cc(F)cc2c1[nH]c1nc(Oc3cnc4c(c3)C(=O)OC4(C)C)nc(N3C[C@H]4C[C@@H]3C[C@H]4N)c12 [Compound 10.72]
24 | ≤ 0.5 | ≤ 0.5 | CNc1cc(F)cc2c1[nH]c1nc(Oc3cnc4c(c3)C(=O)OC4(C)C)nc(N3CC4C[C@@H](N)C4C3)c12 (some centres unmarked) [Compound 10.73]
25 | 1 (≈ 2.09 µM) | ≤ 0.5 | CNc1cc(F)cc2c1[nH]c1nc(Oc3cnc(C(C)O)nc3)nc(N3CC4(CC[C@]4(C)N)C3)c12 (some centres unmarked) [Compound 10.74]
26 | 1 (≈ 2.17 µM) | ≤ 0.5 | CNc1cc(F)cc2c1[nH]c1nc(Oc3cnc(C)nc3)nc(N3CCC(N)(CCC#N)C3)c12 (centres unmarked) [Compound 10.75]
27 | ≤ 0.5 | ≤ 0.5 | CNc1cc(F)cc2c1[nH]c1nc(Oc3ccc([C@@H](C)O)nc3)nc(N3CC4[C@H](N)CC4(C)C3)c12 (some centres unmarked) [Compound 10.76]
28 | 4 (≈ 8.36 µM) | 1 (≈ 2.09 µM) | CNc1cc(F)cc2c1[nH]c1nc(Oc3cnc(C(C)O)nc3)nc(N3C[C@H]4C[C@@H]3[C@H](C)[C@H]4N)c12 (some centres unmarked) [Compound 10.78]
